Here are results for 14 molecules from paper PMC6631349 (Xenobiotica; the fate of foreign compounds in biological …, 2014).

The test system of one series is UGT isoforms. Kind of series: Initial screening towards all UGT isoforms. The conditions noted are these: about 50 μM; isoforms not given. The format is biochemical, human.
The target in series [1] is T1, UGT1A6 (Homo sapiens, UniProt P19224).
T1 sequence (P19224 27-532): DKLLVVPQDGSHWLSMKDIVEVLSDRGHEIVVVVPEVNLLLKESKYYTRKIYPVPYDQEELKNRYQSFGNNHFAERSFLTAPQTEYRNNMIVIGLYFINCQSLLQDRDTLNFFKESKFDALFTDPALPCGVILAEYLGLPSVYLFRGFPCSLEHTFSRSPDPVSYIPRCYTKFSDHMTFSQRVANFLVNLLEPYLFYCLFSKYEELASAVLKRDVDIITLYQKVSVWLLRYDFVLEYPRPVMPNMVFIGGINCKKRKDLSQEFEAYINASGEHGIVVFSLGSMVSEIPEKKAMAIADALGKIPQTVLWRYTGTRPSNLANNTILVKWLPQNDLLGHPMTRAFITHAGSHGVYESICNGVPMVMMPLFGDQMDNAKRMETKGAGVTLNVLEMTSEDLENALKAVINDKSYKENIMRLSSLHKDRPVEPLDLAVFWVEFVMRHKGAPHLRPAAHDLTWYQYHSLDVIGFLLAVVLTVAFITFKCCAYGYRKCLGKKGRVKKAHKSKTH
Conditions: 50 μM.

Series [2] addresses T2, UGT1A8 (Homo sapiens, UniProt Q9HAW9).
T2 sequence (Q9HAW9 26-530): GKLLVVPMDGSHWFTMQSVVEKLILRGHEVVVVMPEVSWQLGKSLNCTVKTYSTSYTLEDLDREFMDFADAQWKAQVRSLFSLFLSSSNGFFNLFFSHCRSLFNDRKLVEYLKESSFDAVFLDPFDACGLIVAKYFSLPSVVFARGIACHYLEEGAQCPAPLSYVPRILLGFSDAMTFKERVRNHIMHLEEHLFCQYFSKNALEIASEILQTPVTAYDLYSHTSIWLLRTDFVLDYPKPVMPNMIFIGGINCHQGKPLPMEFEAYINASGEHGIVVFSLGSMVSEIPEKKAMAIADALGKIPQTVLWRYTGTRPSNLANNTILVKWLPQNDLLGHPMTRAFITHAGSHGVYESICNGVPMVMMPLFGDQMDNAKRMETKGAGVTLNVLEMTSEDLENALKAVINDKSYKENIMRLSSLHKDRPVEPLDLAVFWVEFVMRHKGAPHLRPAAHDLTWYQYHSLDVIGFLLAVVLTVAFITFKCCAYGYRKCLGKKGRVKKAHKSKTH
Conditions: 50 μM.

A further series addresses T3, UGT2B7 (Homo sapiens, UniProt P16662).
T3 sequence (P16662 24-529): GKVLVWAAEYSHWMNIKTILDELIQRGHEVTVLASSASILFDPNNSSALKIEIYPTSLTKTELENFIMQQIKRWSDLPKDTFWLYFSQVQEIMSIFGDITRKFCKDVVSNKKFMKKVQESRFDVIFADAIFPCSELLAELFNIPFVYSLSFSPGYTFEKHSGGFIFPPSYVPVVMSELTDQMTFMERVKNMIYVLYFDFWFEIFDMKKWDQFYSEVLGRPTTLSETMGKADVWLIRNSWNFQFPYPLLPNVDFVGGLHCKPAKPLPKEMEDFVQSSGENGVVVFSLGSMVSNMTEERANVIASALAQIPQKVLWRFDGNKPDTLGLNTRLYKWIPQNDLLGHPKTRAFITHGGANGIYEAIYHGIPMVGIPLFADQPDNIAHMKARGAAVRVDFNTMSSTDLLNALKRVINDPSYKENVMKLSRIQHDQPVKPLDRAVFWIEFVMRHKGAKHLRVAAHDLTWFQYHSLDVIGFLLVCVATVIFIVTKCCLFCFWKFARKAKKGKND
Conditions: 50 μM.

The test system of the next series is UGTs. The conditions noted are these: ref Dragacci et al. (1987); cited from earlier work.
The target of another series is T4, UGT1A4 (Homo sapiens, UniProt P22310).
T4 sequence (P22310 29-534): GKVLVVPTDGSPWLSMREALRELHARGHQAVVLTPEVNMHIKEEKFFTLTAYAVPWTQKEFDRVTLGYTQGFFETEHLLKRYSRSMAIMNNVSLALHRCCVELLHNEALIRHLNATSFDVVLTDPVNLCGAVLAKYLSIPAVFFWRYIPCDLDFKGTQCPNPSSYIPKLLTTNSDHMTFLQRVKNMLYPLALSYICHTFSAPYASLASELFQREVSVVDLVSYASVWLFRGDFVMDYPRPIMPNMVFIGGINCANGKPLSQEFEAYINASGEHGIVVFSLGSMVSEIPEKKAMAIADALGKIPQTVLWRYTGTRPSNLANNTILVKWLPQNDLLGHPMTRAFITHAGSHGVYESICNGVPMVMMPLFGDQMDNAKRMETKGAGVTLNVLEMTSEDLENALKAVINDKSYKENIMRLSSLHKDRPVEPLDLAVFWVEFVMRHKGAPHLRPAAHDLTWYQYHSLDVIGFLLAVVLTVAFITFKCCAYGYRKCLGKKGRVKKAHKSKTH
Briefly: UGT1A4-catalyzed trifluoperazine. Conditions: recombinant human UGT1A4, probe trifluoperazine (TFP), 40 μM.

The test system of another series is UGT1A3. The conditions noted are these: ref Fang et al., 2014b; cited from earlier work.
Series [3] addresses T1, UGT1A6. Conditions: Dixon and Lineweaver-Burk plots; 4-MU glucuronidation.
In series [4] the target is T2, UGT1A8. The conditions noted are these: Dixon and Lineweaver-Burk plots; 4-MU glucuronidation.
The subject of series [5] is multiple UGT isoforms, including UGT1A1, UGT1A3, UGT1A4, UGT1A7, UGT1A10, UGT2B7 and UGT2B15. The conditions noted are these: ref Fang et al., 2013b; cited from earlier work.

In the case of `CCCCCCCC/C=C\CCCCCCCC(=O)OC[C@@H](O)COP(=O)([O-])OCC[N+](C)(C)C` [LPC 18:1], in the series on UGT isoforms, the “inhibition of activity of UGT isoforms” value is “more than 90%”. For the same molecule, at UGT1A6 [1], the “inhibition percentage of UGT1A6 activity” value is on record as 97.5%. Moreover, the “inhibition percentage of UGT1A8 activity” value at UGT1A8 [2] amounted to 98.7%. Moreover, the “inhibition percentage of UGT2B7 activity” value against UGT2B7 was found to be 87.3%. In addition, the “increase for UGTs' activity (maximal regulation capability)” value in the series with UGTs was “approximately 4 fold”.
Consider `CCCCC/C=C\C/C=C\CCCCCCCC(=O)O[C@H](COC(=O)CCCCCCCCCCCCCCCCC)COP(=O)([O-])OCC[N+](C)(C)C` [PC 18:0, 18:2, 1-stearoyl-2-linoleoyl-sn-glycero-3-phosphocholine], for which, on UGT1A4, the activity at 20 min, 50 μM turned out to be 54.3%.
The same measure, in the same setting: in the case of `CCCCC/C=C\C/C=C\C/C=C\C/C=C\CCCC(=O)O[C@H](COC(=O)CCCCCCCCCCCCCCCCC)COP(=O)([O-])OCC[N+](C)(C)C` [PC 18:0, 20:4, 1-stearoyl-2-arachidonoyl-sn-glycero-3-phosphocholine] it was 52.1%.
Regarding `C[C@H](CCC(=O)O)[C@H]1CC[C@H]2[C@@H]3[C@H](O)C[C@@H]4C[C@H](O)CC[C@]4(C)[C@H]3C[C@H](O)[C@]12C` [CA, cholic acid], the “effect on the activity of UGT1A3 (in words)” value in the series on UGT1A3 is “allosteric activation”.
With `CCCCCCCCCCCCCCCCCC(=O)O[C@H](COC(=O)CCCCCCCCCCCCCCC)COP(=O)([O-])OCC[N+](C)(C)C` [PC 16:0, 18:0, 1-palmitoyl-2-stearoyl-sn-glycero-3-phosphocholine], the activity at 20 min, 50 μM at UGT1A4 was determined as 90%.
On the same count and under the same terms, in the case of `CCCCCCCC/C=C\CCCCCCCC(=O)O[C@H](COC(=O)CCCCCCCCCCCCCCC)COP(=O)([O-])OCC[N+](C)(C)C` [PC 16:0, 18:1, 1-palmitoyl-2-oleoyl-sn-glycero-3-phosphocholine] it was 51.8%.
As usually defined, the inhibition is how much of the control response was suppressed. In the case of `CCCCCCCCCCCCCCCC(=O)OC[C@H](COP(=O)([O-])OCC[N+](C)(C)C)OC(C)=O` [PC 16:0, 2:0, 1-palmitoyl-2-acetyl-sn-glycero-3-phosphocholine], the “inhibition of activity of UGT isoforms” value in the series on UGT isoforms is “more than 90%”. Besides, on UGT1A4, the activity at 20 min, 50 μM is 5.5% and the inhibition at 20 min, 50 µM turned out to be 94.5%. The “inhibition kinetic type towards UGT1A6” value against UGT1A6 [3] was “competitive inhibition”. Besides, the “inhibition kinetic type towards UGT1A8” value on UGT1A8 [4] is on record as “non-competitively inhibited”.
With `CCCCCCCCCCCCCCCC(=O)OC[C@H](COP(=O)([O-])OCC[N+](C)(C)C)OC(=O)CCCCCCCCCCCCC` [PC 16:0, 14:0, 1-palmitoyl-2-myristoyl-sn-glycero-3-phosphocholine], the activity at 20 min, 50 μM at UGT1A4 was determined as 63.8%.
Still for that read-out and setting: in the case of `CCCCCCCC/C=C\CCCCCCCC(=O)OC[C@H](COP(=O)([O-])OCC[N+](C)(C)C)OC(=O)CCCCCCCCCCCCCCC` [PC 18:1, 16:0, 1-oleoyl-2-palmitoyl-sn-glycero-3-phosphocholine] it was 52.6%.
On the same count and under the same terms, then `CCCCCCCC/C=C\CCCCCCCC(=O)OC[C@H](COP(=O)([O-])OCC[N+](C)(C)C)OC(=O)CCCCCCCCCCCCCCCCC` [PC 18:1, 18:0, 1-oleoyl-2-stearoyl-sn-glycero-3-phosphocholine], with 60.4%.
On to `C[C@H](CCC(=O)NCCS(=O)(=O)O)[C@H]1CC[C@H]2[C@@H]3CC[C@@H]4C[C@H](O)CC[C@]4(C)[C@H]3CC[C@]12C` [TLCA, taurolithocholic acid], for which the “inhibitory effects towards multiple UGT isoforms (in words)” value in series [5] was “strong inhibitory effects”.
Regarding `CCCCCCCC/C=C\CCCCCCCC(=O)OC[C@H](COP(=O)([O-])OCC[N+](C)(C)C)OC(=O)CCCCCCCCCCCCC` [PC 18:1, 14:0, 1-oleoyl-2-myristoyl-sn-glycero-3-phosphocholine], at UGT1A4, the activity at 20 min, 50 μM was found to be 49.8%.
For `CCCCCCCCCCCCCCCC(=O)OC[C@@H](O)COP(=O)([O-])OCC[N+](C)(C)C` [LPC 16:0], the “inhibition of activity of UGT isoforms” value in the series on UGT isoforms is reported as “more than 90%”.
As for `C[C@H](CCC(=O)NCC(=O)O)[C@H]1CC[C@H]2[C@@H]3[C@H](O)C[C@@H]4C[C@H](O)CC[C@]4(C)[C@H]3C[C@H](O)[C@]12C` [GCA, glycocholic acid], the “effect on the activity of UGT1A3 (in words)” value with UGT1A3 is “allosteric activation”.
